Results: US20210300940A1 (Merck Patent GmbH, priority 2018, published 2021)
Where a name gives a salt, the structure may show the parent alone.

Assays:
TLR7 = biological target: T1, TLR7 (Homo sapiens, UniProt Q9NYK1); assay: HEK/293 TLR7 Cell Assay; type: cell-based; settings: TLR7/NFKb HEK cells, R848 agonist 10 uM final concentration, Steady-Glo readout; read-out: TLR7 potency
T1 construct: expressed in transfected cells; host or cells: HEK/293 cells carrying TLR7 and an NF-kB luciferase reporter
T1 sequence (Q9NYK1 27-1049): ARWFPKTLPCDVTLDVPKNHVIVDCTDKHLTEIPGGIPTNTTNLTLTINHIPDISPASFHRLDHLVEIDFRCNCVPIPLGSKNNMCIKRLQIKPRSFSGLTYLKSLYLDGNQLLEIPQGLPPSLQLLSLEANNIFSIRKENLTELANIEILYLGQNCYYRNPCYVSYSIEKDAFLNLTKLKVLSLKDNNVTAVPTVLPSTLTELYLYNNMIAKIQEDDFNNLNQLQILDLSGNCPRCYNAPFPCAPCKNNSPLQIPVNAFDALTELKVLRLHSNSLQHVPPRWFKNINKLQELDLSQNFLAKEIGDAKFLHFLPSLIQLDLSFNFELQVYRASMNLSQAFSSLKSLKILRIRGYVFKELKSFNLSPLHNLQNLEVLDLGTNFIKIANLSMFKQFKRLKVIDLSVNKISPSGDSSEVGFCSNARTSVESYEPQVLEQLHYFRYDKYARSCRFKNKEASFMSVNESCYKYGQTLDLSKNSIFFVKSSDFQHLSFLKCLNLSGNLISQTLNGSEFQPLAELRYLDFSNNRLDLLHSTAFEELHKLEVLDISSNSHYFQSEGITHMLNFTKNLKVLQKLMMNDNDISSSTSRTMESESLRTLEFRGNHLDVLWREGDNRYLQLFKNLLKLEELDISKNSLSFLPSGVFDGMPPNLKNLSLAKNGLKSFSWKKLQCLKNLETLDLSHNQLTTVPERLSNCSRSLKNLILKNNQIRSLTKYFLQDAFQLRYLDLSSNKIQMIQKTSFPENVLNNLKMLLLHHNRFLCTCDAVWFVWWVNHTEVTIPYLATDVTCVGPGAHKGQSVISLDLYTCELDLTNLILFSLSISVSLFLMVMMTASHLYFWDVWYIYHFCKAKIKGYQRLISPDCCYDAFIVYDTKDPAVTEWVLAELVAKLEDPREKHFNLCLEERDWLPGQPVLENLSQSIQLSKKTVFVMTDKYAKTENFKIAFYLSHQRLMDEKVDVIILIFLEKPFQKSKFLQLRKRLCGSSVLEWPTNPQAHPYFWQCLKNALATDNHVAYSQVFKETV
Summary of the method: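 Compounds added to HEK cells expressing TLR7 with an NFκB reporter 30 min ahead of 10 uM R848 challenge; luciferase signal (Steady-Glo) measured after 5 h, cells having been seeded 24 h earlier at 5000 per well.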

TLR8 = biological target: T2, TLR8 (Homo sapiens, UniProt Q9NR97); assay: HEK/293 TLR8 Cell Assay; type: cell-based; settings: HEK cells, R848 agonist 30 uM final concentration, Steady-Glo readout; read-out: TLR8 potency
T2 construct: expressed in transfected cells; host or cells: HEK/293 reporter cells (NF-kB luciferase)
T2 sequence (Q9NR97 27-1041): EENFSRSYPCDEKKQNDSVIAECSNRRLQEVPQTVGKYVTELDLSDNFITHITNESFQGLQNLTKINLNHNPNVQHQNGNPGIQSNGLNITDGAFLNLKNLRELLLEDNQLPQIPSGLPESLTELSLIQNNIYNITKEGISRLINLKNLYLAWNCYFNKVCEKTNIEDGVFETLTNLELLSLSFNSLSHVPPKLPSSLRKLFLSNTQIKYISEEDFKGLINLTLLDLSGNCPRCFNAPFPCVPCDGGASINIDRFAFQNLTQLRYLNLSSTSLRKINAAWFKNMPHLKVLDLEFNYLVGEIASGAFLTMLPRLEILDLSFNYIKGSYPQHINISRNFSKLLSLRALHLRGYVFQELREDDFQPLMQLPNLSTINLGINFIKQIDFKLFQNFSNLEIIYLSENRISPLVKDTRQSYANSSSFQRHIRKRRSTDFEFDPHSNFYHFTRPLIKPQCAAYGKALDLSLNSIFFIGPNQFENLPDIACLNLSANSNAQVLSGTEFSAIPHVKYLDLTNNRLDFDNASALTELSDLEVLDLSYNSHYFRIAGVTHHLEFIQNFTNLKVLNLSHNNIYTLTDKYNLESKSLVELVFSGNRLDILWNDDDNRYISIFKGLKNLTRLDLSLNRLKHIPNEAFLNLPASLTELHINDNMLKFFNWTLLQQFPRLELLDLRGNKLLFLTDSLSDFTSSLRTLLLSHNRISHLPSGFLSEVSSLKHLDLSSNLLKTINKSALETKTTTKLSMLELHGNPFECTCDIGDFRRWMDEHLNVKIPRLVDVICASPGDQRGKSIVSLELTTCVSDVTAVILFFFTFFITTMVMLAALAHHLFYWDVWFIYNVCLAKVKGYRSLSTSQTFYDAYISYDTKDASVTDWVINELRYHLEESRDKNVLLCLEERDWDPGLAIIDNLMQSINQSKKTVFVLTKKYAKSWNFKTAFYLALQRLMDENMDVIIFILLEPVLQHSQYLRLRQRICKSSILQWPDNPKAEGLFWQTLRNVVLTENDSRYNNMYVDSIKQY

| Compound | IC50 (TLR7) | IC50 (TLR8) |
| --- | --- | --- |
| C[C@@H]1CN(c2ccc(C#N)c3ncncc23)C[C@H](CNC(=O)[C@]2(F)CCNC2)O1 (single isomer, unassigned) [Example 345] | < 75 nM | < 75 nM |
| C[C@@H]1CN(c2ccc(C#N)c3nccnc23)C[C@H](C(=O)NC[C@H](O)CO)O1 [Example 234, (2R,6R)-4-(8-Cyano-quinoxalin-5-yl)-6-methyl-morpholine-2-carboxylic acid ((S)-2,3-dihydroxy-propyl)-amide] | 75 to 150 nM | 75 to 150 nM |
| N#Cc1ccc(N2C[C@H](NC(=O)CC3(N)CC3)C[C@H](C(F)(F)F)C2)c2nccnc12 [Example 119, 2-(1-aminocyclopropyl)-N-[(3R,5S)-1-(8-cyanoquinoxalin-5-yl)-5-(trifluoromethyl)piperidin-3-yl]acetamide] | 75 to 150 nM | < 75 nM |
| C[C@@H]1CN(c2ccc(C#N)c3nccnc23)C[C@H](CNC(=O)[C@H](C)O)O1 (single isomer, unassigned) [Example 341] | > 150 nM | < 75 nM |
| CN1CCC(O)(CC(=O)N[C@@H]2C[C@H](C(F)(F)F)CN(c3ccc(C(F)(F)F)c4nccnc34)C2)CC1 [Example 63, 2-(4-hydroxy-1-methylpiperidin-4-yl)-N-[(3R,5S)-5-(trifluoromethyl)-1-[8-(trifluoromethyl)quinoxalin-5-yl]piperidin-3-yl]acetamide] | < 75 nM | < 75 nM |
| C[C@H]1C[C@@H](n2ccnn2)CN(c2ccc(C#N)c3nccnc23)C1 (racemic) [Example 153, 8-[cis-3-methyl-5-(1H-1,2,3-triazol-1-yl)piperidin-1-yl]quinoxaline-5-carbonitrile] | > 150 nM | < 75 nM |
| C[C@@H]1CN(c2ccc(C#N)c3ncncc23)C[C@H](C(=O)NC2CCNCC2(F)F)O1 (stereo partly drawn) [Example 299, (2R,6R)-4-(8-Cyano-quinazolin-5-yl)-6-methyl-morpholine-2-carboxylic acid (3,3-difluoro-piperidin-4-yl)-amide] | < 75 nM | < 75 nM |
| C[C@H]1C[C@@H](NC(=O)CC2(O)CCN(C)CC2)CN(c2ccc(C(F)(F)F)c3nccnc23)C1 [Example 80, 2-(4-hydroxy-1-methylpiperidin-4-yl)-N-[(3R,5S)-5-methyl-1-[8-(trifluoromethyl)quinoxalin-5-yl]piperidin-3-yl]acetamide hydrochloride] | < 75 nM | < 75 nM |
| C[C@@H]1CN(c2ccc(C#N)c3nccnc23)C[C@H](C(=O)NC[C@@H](O)CO)O1 [Example 233, (2R,6R)-4-(8-Cyano-quinoxalin-5-yl)-6-methyl-morpholine-2-carboxylic acid ((R)-2,3-dihydroxy-propyl)-amide] | < 75 nM | < 75 nM |
| C[C@@H]1CN(c2ccc(C#N)c3nccnc23)C[C@H](C(=O)NCCN2CCOCC2)O1 [Example 265, (2R,6R)-4-(8-cyanoquinoxalin-5-yl)-6-methyl-N-[2-(morpholin-4-yl)ethyl]morpholine-2-carboxamide] | < 75 nM | < 75 nM |
| N#Cc1ccc(N2C[C@@H](C(F)(F)F)O[C@@H](C(=O)NC[C@]3(F)CCNC3)C2)c2nccnc12 (single isomer, unassigned) [Example 309] | < 75 nM | < 75 nM |
| C[C@H]1C[C@@H](NC(=O)[C@H](O)C(C)(C)O)CN(c2ccc(C#N)c3nccnc23)C1 [Example 162, (R)—N-[(3R,5S)-1-(8-Cyano-quinoxalin-5-yl)-5-methyl-piperidin-3-yl]-2,3-dihydroxy-3-methyl-butyramide] | 75 to 150 nM | > 150 nM |

Now from value to compound:

| IC50 (TLR7) | IC50 (TLR8) | Compound |
| --- | --- | --- |
| 75 to 150 nM | < 75 nM | C[C@@H]1CN(c2cnc(C#N)c3ncccc23)C[C@H](CN2CCN(CCO)CC2)O1 [Example 372, 5-{(2S,6R)-2-[4-(2-Hydroxy-ethyl)-piperazin-1-ylmethyl]-6-methyl-morpholin-4-yl}-[1,7]naphthyridine-8-carbonitrile] |
| < 75 nM | < 75 nM | CC(C(=O)N[C@@H]1C[C@H](C)CN(c2ccc(C(F)(F)F)c3ncccc23)C1)N1CCC(O)CC1 (single isomer, unassigned) [Example 104] |
| < 75 nM | < 75 nM | CN1CCC(F)(CNC(=O)[C@@H]2CN(c3cnc(C#N)c4ncccc34)C[C@H](C(F)(F)F)O2)CC1 (single isomer, unassigned) [Example 351] |
| < 75 nM | < 75 nM | C[C@@H](C(=O)N[C@@H]1C[C@H](C(F)(F)F)CN(c2ccc(C(F)(F)F)c3ncccc23)C1)N1CCN(C)CC1 (single isomer, unassigned) [Example 95] |
| < 75 nM | 75 to 150 nM | C[C@@H]1CN(c2cnc(C#N)c3ncccc23)C[C@H](C(=O)NC[C@H]2CCCN2C)O1 [Example 276, (2R,6R)-4-(8-Cyano-[1,7]naphthyridin-5-yl)-6-methyl-morpholine-2-carboxylic acid ((R)-1-methyl-pyrrolidin-2-ylmethyl)-amide] |
| 75 to 150 nM | < 75 nM | C[C@@H]1CN(c2cnc(C#N)c3ncccc23)C[C@H](CNC(=O)[C@]2(F)CCN(C)C2)O1 (single isomer, unassigned) [Example 335] |
| 75 to 150 nM | < 75 nM | C[C@@H]1CN(c2cnc(C#N)c3ncccc23)C[C@H](CNC(=O)C2(F)CCNC2)O1 (stereo partly drawn) [Example 332, N-{[(2S,6R)-4-(8-cyano-1,7-naphthyridin-5-yl)-6-methylmorpholin-2-yl]methyl}-3-fluoropyrrolidine-3-carboxamide] |
| < 75 nM | < 75 nM | Cc1ccc(N2C[C@H](NC(=O)CC3(O)CCN(C)CC3)C[C@H](C(F)(F)F)C2)c2cccnc12 [Example 87, 2-(4-hydroxy-1-methylpiperidin-4-yl)-N-[(3R,5S)-1-(8-methylquinolin-5-yl)-5-(trifluoromethyl)piperidin-3-yl]acetamide] |
| < 75 nM | > 150 nM | C[C@@H]1CN(c2ccc(C#N)c3nccnc23)C[C@H](CN2CC[C@H](O)C2)O1 [Example 220, 8-[(2S,6R)-2-((S)-3-Hydroxy-pyrrolidin-1-ylmethyl)-6-methyl-morpholin-4-yl]-quinoxaline-5-carbonitrile] |
| < 75 nM | < 75 nM | CN1CC[C@](F)(CNC(=O)[C@H]2CN(c3ccc(C#N)c4nccnc34)C[C@@H](C(F)(F)F)O2)C1 (single isomer, unassigned) [Example 357] |
| > 150 nM | > 150 nM | Cc1ccc(N2C[C@@H](NC(=O)CC3CCN(C(C)C)CC3)CC(F)(F)C2)c2cccnc12 [Example 111, N—[(S)-5,5-Difluoro-1-(8-methyl-quinolin-5-yl)-piperidin-3-yl]-2-(1-isopropyl-piperidin-4-yl)-acetamide] |
